Laboratory results taken from US20240199546A1, “INHIBITORS OF SOLUTE CARRIER FAMILY 6A MEMBER 19 (SLC6A19) AND METHODS OF USE THEREOF” (Maze Therapeutics, Inc., priority 2022, published 2024).

Biological target: T1, human SLC6A19 and TMEM27 (Homo sapiens, UniProt Q695T7)
T1 construct: expressed in transfected cells
T1 sequence (Q695T7 1-634): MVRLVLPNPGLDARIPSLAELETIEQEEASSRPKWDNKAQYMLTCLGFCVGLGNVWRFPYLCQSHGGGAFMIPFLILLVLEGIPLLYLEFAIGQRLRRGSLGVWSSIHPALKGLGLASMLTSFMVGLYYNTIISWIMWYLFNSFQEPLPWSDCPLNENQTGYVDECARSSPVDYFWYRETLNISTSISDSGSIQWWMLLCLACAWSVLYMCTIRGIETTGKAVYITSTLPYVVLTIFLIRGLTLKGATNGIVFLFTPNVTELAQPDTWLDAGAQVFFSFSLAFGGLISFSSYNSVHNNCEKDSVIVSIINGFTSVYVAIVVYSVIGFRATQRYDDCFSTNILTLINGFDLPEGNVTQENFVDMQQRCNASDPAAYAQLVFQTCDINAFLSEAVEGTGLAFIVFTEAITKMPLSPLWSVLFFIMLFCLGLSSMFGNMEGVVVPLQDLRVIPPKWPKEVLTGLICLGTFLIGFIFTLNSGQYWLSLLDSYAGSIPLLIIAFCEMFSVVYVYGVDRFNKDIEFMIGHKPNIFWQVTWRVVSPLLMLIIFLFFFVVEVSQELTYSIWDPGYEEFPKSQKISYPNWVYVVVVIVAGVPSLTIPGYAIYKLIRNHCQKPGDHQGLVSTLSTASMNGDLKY
T1 sequence (Q9HBJ8 15-222 partner): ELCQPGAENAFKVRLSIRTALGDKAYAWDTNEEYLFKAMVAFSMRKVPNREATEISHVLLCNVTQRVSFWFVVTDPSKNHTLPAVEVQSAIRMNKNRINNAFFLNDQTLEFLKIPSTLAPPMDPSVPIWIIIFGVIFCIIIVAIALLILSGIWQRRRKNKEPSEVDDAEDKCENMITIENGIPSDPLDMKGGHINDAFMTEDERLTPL
Experiment: Radiolabelled (3H) leucine uptake in CHO cells with doxycycline-inducible expression of human SLC6A19 and TMEM27 (Example B-1)
Type: cell-based
Conditions: CHO cells with doxycycline-inducible expression of human SLC6A19 and TMEM27, read-out: SLC6A19_Radioligand Uptake Assay IC50
Method in brief: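 CHO cells were induced with doxycycline for 18 h at 37 °C, washed in HBSS, then exposed to compounds for 1 h: 8-point, 3-fold dilutions in duplicate, 0.5% DMSO final. Uptake measured by scintillation counting after 2 h shaking. Activity normalized with positive control as 0% and DMSO as 100%.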

| SMILES | IC50 |
| --- | --- |
| Cc1cc(COc2cc3[nH]c(CNC(=O)CN(C)C)cc3cc2Cl)on1 [Compound 579, N-((5-chloro-6-((3-methylisoxazol-5-yl)methoxy)-1H-indol-2-yl)methyl)-2-(dimethylamino)acetamide] | 587 nM |
| Cc1cc(COc2cc3[nH]c(CNC(=O)C[C@@H](C)O)cc3cc2Cl)on1 [Compound 287, (R)-N-((5-chloro-6-((3-methylisoxazol-5-yl)methoxy)-1H-indol-2-yl)methyl)-3-hydroxybutanamide] | 2400 nM |
| O=C(NCc1cc2cc(Cl)c(OCc3cscn3)cc2[nH]1)N1CCC(O)C1 (racemic) [Compound 366, (R)-N-((5-chloro-6-(thiazol-4-ylmethoxy)-1H-indol-2-yl)methyl)-3-hydroxypyrrolidine-1-carboxamide and (S)-N-((5-chloro-6-(thiazol-4-ylmethoxy)-1H-indol-2-yl)methyl)-3-hydroxypyrrolidine-1-carboxamide] | 1530 nM |
| Cc1cc(COc2cc3[nH]c(CNC(=O)[C@@H]4C[C@@H](F)CN4)cc3cc2Cl)on1 [Compound 665, (2S,4R)—N-((5-chloro-6-((3-methylisoxazol-5-yl)methoxy)-1H-indol-2-yl)methyl)-4-fluoropyrrolidine-2-carboxamide] | 1560 nM |
| Cc1cc(COc2cc3[nH]c(CNC(=O)C45COCC4C5)cc3cc2Cl)on1 (stereo not shown) [Compound 300, N-((5-chloro-6-((3-methylisoxazol-5-yl)methoxy)-1H-indol-2-yl)methyl)-3-oxabicyclo[3.1.0]hexane-1-carboxamide] | 321 nM |
| Cc1cc(COc2cc3[nH]c(CNC(=O)C(C)(F)F)cc3cc2Cl)on1 [Compound 440, N-((5-chloro-6-((3-methylisoxazol-5-yl)methoxy)-1H-indol-2-yl)methyl)-2,2-difluoropropanamide] | 111 nM |
| O=C(NCc1cc2cc(Cl)c(OCc3cscn3)cc2[nH]1)C1COC1 [Compound 261, N-((5-chloro-6-(thiazol-4-ylmethoxy)-1H-indol-2-yl)methyl)oxetane-3-carboxamide] | 105 nM |
| Cc1cc(COc2cc3[nH]c(CNC(=O)C4(F)CC4)cc3cc2F)on1 [Compound 572, 1-fluoro-N-((5-fluoro-6-((3-methylisoxazol-5-yl)methoxy)-1H-indol-2-yl)methyl)cyclopropane-1-carboxamide] | 113 nM |
| O=C(CN1CCC1)NCc1cc2cc(Cl)c(OCc3cscn3)cc2[nH]1 [Compound 512, 2-(azetidin-1-yl)-N-((5-chloro-6-(thiazol-4-ylmethoxy)-1H-indol-2-yl)methyl)acetamide] | 6780 nM |
| Cc1cc(COc2cc3[nH]c(CNC(=O)C(O)C4CC4)cc3cc2Cl)on1 (stereo not shown) [Compound 238, N-((5-chloro-6-((3-methylisoxazol-5-yl)methoxy)-1H-indol-2-yl)methyl)-2-cyclopropyl-2-hydroxyacetamide] | 1450 nM |
| CC1(C(=O)NCc2cc3cc(Cl)c(OCCC4CC4)cc3[nH]2)CC1 [Compound 635, N-((5-chloro-6-(2-cyclopropylethoxy)-1H-indol-2-yl)methyl)-1-methylcyclopropane-1-carboxamide] | 193 nM |

More lines, in order of falling IC50, values ahead:

| IC50 | SMILES |
| --- | --- |
| 3050 nM | Cc1cc(COc2cc3[nH]c(CNC(=O)[C@H]4CCN4C)cc3cc2Cl)on1 [Compound 575, (R)-N-((5-chloro-6-((3-methylisoxazol-5-yl)methoxy)-1H-indol-2-yl)methyl)-1-methylazetidine-2-carboxamide] |
| 3040 nM | Cc1cc(COc2cc3[nH]c(CNC(=O)[C@@H]4CCC[C@H]4O)cc3cc2Cl)on1 (racemic) [Compound 534, (1R,2R)-N-((5-chloro-6-((3-methylisoxazol-5-yl)methoxy)-1H-indol-2-yl)methyl)-2-hydroxycyclopentane-1-carboxamide and (1S,2S)-N-((5-chloro-6-((3-methylisoxazol-5-yl)methoxy)-1H-indol-2-yl)methyl)-2-hydroxycyclopentane-1-carboxamide] |
| 2730 nM | Cc1cc(COc2cc3[nH]c(CNC(=O)[C@H]4CCN4)cc3cc2Cl)on1 [Compound 616, (R)-N-((5-chloro-6-((3-methylisoxazol-5-yl)methoxy)-1H-indol-2-yl)methyl)azetidine-2-carboxamide] |
| 1050 nM | CC(NC(=O)C1(C)CC1)c1cc2cc(Cl)c(OCc3cscn3)cc2[nH]1 (racemic) [Compound 347, (S)-N-(1-(5-chloro-6-(thiazol-4-ylmethoxy)-1H-indol-2-yl)ethyl)-1-methylcyclopropane-1-carboxamide and (R)-N-(1-(5-chloro-6-(thiazol-4-ylmethoxy)-1H-indol-2-yl)ethyl)-1-methylcyclopropane-1-carboxamide] |
| 910 nM | Cc1cc(COc2cc3[nH]c(CNC(=O)C[C@H](C)O)cc3cc2Cl)on1 [Compound 286, (S)-N-((5-chloro-6-((3-methylisoxazol-5-yl)methoxy)-1H-indol-2-yl)methyl)-3-hydroxybutanamide] |
| 363 nM | CC1(C(=O)NCc2cc3c(F)c(Cl)c(OCc4ccon4)cc3[nH]2)CC1 [Compound 15, N-((5-chloro-4-fluoro-6-(isoxazol-3-ylmethoxy)-1H-indol-2-yl)methyl)-1-methylcyclopropane-1-carboxamide] |
| 339 nM | CC1(C(=O)NCc2cc3cc(Cl)c(CNc4ccccn4)cc3[nH]2)CC1 [Compound 609, N-((5-chloro-6-((pyridin-2-ylamino)methyl)-1H-indol-2-yl)methyl)-1-methylcyclopropane-1-carboxamide] |
| 322 nM | C[C@H](O)C(=O)NCc1cc2cc(Cl)c(OCc3cscn3)cc2[nH]1 [Compound 285, (S)-N-((5-chloro-6-(thiazol-4-ylmethoxy)-1H-indol-2-yl)methyl)-2-hydroxypropanamide] |
| 203 nM | O=C(NCc1cc2cc(F)c(OCc3ccccn3)cc2[nH]1)C1CC1 [Compound 505, N-((5-fluoro-6-(pyridin-2-ylmethoxy)-1H-indol-2-yl)methyl)cyclopropanecarboxamide] |
| 199 nM | Cc1cc(COc2cc3[nH]c(CNC(=O)c4ccno4)cc3cc2Cl)on1 [Compound 522, N-((5-chloro-6-((3-methylisoxazol-5-yl)methoxy)-1H-indol-2-yl)methyl)isoxazole-5-carboxamide] |
| 198 nM | O=C(NCc1cc2c(F)cc(OCc3ccon3)cc2[nH]1)N1CCC1 [Compound 423, N-((4-fluoro-6-(isoxazol-3-ylmethoxy)-1H-indol-2-yl)methyl)azetidine-1-carboxamide] |
| 148 nM | O=C(NCc1cc2cc(F)c(OCc3ccon3)cc2[nH]1)C1CC1 [Compound 140, N-((5-fluoro-6-(isoxazol-3-ylmethoxy)-1H-indol-2-yl)methyl)cyclopropanecarboxamide] |
| 119 nM | Cc1cc(COc2cc3[nH]c(CNC(=O)[C@H]4CCO4)cc3cc2Cl)on1 [Compound 317, (R)-N-((5-chloro-6-((3-methylisoxazol-5-yl)methoxy)-1H-indol-2-yl)methyl)oxetane-2-carboxamide] |
| 80.4 nM | [2H]C([2H])([2H])C(=O)NCc1cc2cc(Cl)c(OCc3cscn3)cc2[nH]1 [Compound 570, N-((5-chloro-6-(thiazol-4-ylmethoxy)-1H-indol-2-yl)methyl)acetamide-2,2,2-d3] |
